Experimental data taken from US11071731B2, “Allosteric modulators of the mu opioid receptor” (Chiromics, LLC, priority 2017, dated 2021).

Columns and labels:
mu opioid receptor (MOR) [1] = target: T1, mu opioid receptor (MOR) (Homo sapiens, UniProt P35372); test: PathHunter β-arrestin recruitment assay, PAM mode with EC20 endomorphin-1; type: cell-based; conditions: for EC50: read-out: β-arr. EC50
Method in brief: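 β-Arrestin recruitment to the receptor was tracked by chemiluminescent β-galactosidase activity from complementing fragments (ED on receptor, EA on β-arrestin). Per-compound outputs were EC50 and percent maximal response.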

mu opioid receptor (MOR) [2] = target: T1, mu opioid receptor (MOR); test: Hit Hunter cAMP signaling assay (adenylyl cyclase inhibition), PAM mode with EC20 endomorphin-1; type: cell-based
[3] = maximal response for β-arrestin recruitment
[4] = cAMP EC50, adenylyl cyclase inhibition
[5] = maximal response for adenylyl cyclase inhibition
[6] = adenylyl cyclase inhibition, read-out: cAMP EC50
[7] = maximal response, β-arrestin recruitment
[8] = maximal response, adenylyl cyclase inhibition

T1 sequence (P35372 whole entry, the tested form may be a part): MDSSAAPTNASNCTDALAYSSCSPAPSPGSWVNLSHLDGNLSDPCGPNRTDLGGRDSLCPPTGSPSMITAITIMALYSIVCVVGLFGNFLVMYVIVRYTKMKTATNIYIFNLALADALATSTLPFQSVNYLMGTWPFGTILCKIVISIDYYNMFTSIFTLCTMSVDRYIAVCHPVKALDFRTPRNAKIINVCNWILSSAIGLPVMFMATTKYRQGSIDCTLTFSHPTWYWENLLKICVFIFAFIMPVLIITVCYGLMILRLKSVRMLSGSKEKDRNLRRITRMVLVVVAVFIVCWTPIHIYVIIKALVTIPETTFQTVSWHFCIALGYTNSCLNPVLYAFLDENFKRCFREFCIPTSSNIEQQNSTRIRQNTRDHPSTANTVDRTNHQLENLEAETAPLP

Fc1cnc(Cl)nc1N1C2CCC(C2)C1c1cccc(C(F)(F)F)n1 (centres unmarked) [compound 137]
β-arr Max. Resp. (mu opioid receptor (MOR) [1]; [3]): D (D represents a maximal response of < 40%) | EC50 (mu opioid receptor (MOR) [1]; β-arrestin recruitment): > 2100 nM | EC50 (mu opioid receptor (MOR) [2]; [4]): > 2100 nM | cAMP Max. Resp. (mu opioid receptor (MOR) [2]; [5]): D (D represents a maximal response of < 40%)

COc1ncccc1C1CCCCN1c1nc(Cl)ncc1F (centres unmarked) [compound 380]
β-arr Max. Resp. (mu opioid receptor (MOR) [1]; [3]): D (D represents a maximal response of < 40%) | EC50 (mu opioid receptor (MOR) [1]; β-arrestin recruitment): < 700 nM | EC50 (mu opioid receptor (MOR) [2]; [4]): < 700 nM | cAMP Max. Resp. (mu opioid receptor (MOR) [2]; [5]): D (D represents a maximal response of < 40%)

Fc1ccc(Cl)cc1CN1CCOCC1c1cccc(C(F)(F)F)n1 (racemic) [Compound 191]
β-arr Max. Resp. (mu opioid receptor (MOR) [1]; [3]): F (F represents a maximal response of > 60%) | EC50 (mu opioid receptor (MOR) [1]; β-arrestin recruitment): 700 to 2100 nM | EC50 (mu opioid receptor (MOR) [2]; [6]): 700 to 2100 nM | cAMP Max. Resp. (mu opioid receptor (MOR) [2]; [5]): E (E represents a maximal response of 40-60%)

COc1ccc(C2N(S(=O)(=O)c3ccc(Cl)cc3)CCC2(F)F)cc1Br (racemic) [Compound 85]
β-arr Max. Resp. (mu opioid receptor (MOR) [1]; [3]): D (D represents a maximal response of < 40%) | EC50 (mu opioid receptor (MOR) [1]; β-arrestin recruitment): > 2100 nM | EC50 (mu opioid receptor (MOR) [2]; [6]): > 2100 nM | cAMP Max. Resp. (mu opioid receptor (MOR) [2]; [5]): D (D represents a maximal response of < 40%)

CC1CCN(S(=O)(=O)c2ccc(Cl)cc2)C1c1ccc(F)c(F)c1 (mixture of isomers) [Compound 97]
β-arr Max. Resp. (mu opioid receptor (MOR) [1]; [3]): F (F represents a maximal response of > 60%) | EC50 (mu opioid receptor (MOR) [1]; β-arrestin recruitment): 700 to 2100 nM | EC50 (mu opioid receptor (MOR) [2]; [6]): 700 to 2100 nM | cAMP Max. Resp. (mu opioid receptor (MOR) [2]; [5]): D (D represents a maximal response of < 40%)

Fc1ccc(Cl)nc1N1CCCCC1c1cncnc1 (centres unmarked) [compound 382]
β-arr Max. Resp. (mu opioid receptor (MOR) [1]; [3]): D (D represents a maximal response of < 40%) | EC50 (mu opioid receptor (MOR) [1]; β-arrestin recruitment): < 700 nM | EC50 (mu opioid receptor (MOR) [2]; [4]): < 700 nM | cAMP Max. Resp. (mu opioid receptor (MOR) [2]; [5]): D (D represents a maximal response of < 40%)

Fc1ccc(Cl)cc1CN1CCOCC1c1cccc(C(F)(F)F)c1 (racemic) [Compound 193]
β-arr Max. Resp. (mu opioid receptor (MOR) [1]; [3]): F (F represents a maximal response of > 60%) | EC50 (mu opioid receptor (MOR) [1]; β-arrestin recruitment): 700 to 2100 nM | EC50 (mu opioid receptor (MOR) [2]; [6]): > 2100 nM | cAMP Max. Resp. (mu opioid receptor (MOR) [2]; [5]): F (F represents a maximal response of > 60%)

COc1ccc(C2CCCCN2S(=O)(=O)c2ccc(Cl)cc2)cc1Cl (racemic) [compound 51]
β-arr Max. Resp. (mu opioid receptor (MOR) [1]; [3]): F (F represents a maximal response of > 60%) | EC50 (mu opioid receptor (MOR) [1]; β-arrestin recruitment): > 2100 nM | EC50 (mu opioid receptor (MOR) [2]; [6]): 700 to 2100 nM | cAMP Max. Resp. (mu opioid receptor (MOR) [2]; [5]): F (F represents a maximal response of > 60%)

C#Cc1ccccc1N1CCCCC1c1ccc(F)c(Cl)c1 (centres unmarked) [compound 463]
β-arr Max. Resp. (mu opioid receptor (MOR) [1]; [7]): D (D represents a maximal response of < 40%) | EC50 (mu opioid receptor (MOR) [1]; β-arrestin recruitment): > 2100 nM | EC50 (mu opioid receptor (MOR) [2]; [6]): > 2100 nM | cAMP Max. Resp. (mu opioid receptor (MOR) [2]; [8]): D (D represents a maximal response of < 40%)

Fc1cc(C2CCCCN2Cc2cc(Cl)ccc2F)cc(C(F)(F)F)c1 (centres unmarked) [compound 167]
β-arr Max. Resp. (mu opioid receptor (MOR) [1]; [3]): F (F represents a maximal response of > 60%) | EC50 (mu opioid receptor (MOR) [1]; β-arrestin recruitment): < 700 nM | EC50 (mu opioid receptor (MOR) [2]; [4]): 700 to 2100 nM | cAMP Max. Resp. (mu opioid receptor (MOR) [2]; [5]): F (F represents a maximal response of > 60%)

O=S(=O)(c1ccc(Cl)cc1)N1CCCCC1c1ccc(F)c(Br)c1 (single isomer, unassigned) [compound 446]
β-arr Max. Resp. (mu opioid receptor (MOR) [1]; [7]): F (F represents a maximal response of > 60%) | EC50 (mu opioid receptor (MOR) [1]; β-arrestin recruitment): > 2100 nM | EC50 (mu opioid receptor (MOR) [2]; [6]): > 2100 nM | cAMP Max. Resp. (mu opioid receptor (MOR) [2]; [8]): E (E represents a maximal response of 40-60%)

Fc1cnc(Cl)nc1N1CC(F)(F)CC1c1cccc(C(F)(F)F)n1 (centres unmarked) [compound 482]
β-arr Max. Resp. (mu opioid receptor (MOR) [1]; [7]): D (D represents a maximal response of < 40%) | EC50 (mu opioid receptor (MOR) [1]; β-arrestin recruitment): > 2100 nM | EC50 (mu opioid receptor (MOR) [2]; [6]): > 2100 nM | cAMP Max. Resp. (mu opioid receptor (MOR) [2]; [8]): D (D represents a maximal response of < 40%)

Cc1nccc(N2CCCCC2c2cncc(Cl)n2)n1 (centres unmarked) [compound 396]
β-arr Max. Resp. (mu opioid receptor (MOR) [1]; [3]): D (D represents a maximal response of < 40%) | EC50 (mu opioid receptor (MOR) [1]; β-arrestin recruitment): < 700 nM | EC50 (mu opioid receptor (MOR) [2]; [4]): < 700 nM | cAMP Max. Resp. (mu opioid receptor (MOR) [2]; [5]): D (D represents a maximal response of < 40%)

O=S(=O)(c1ccc(Cl)cc1)N1C2CCC(C2)C1c1ccc(F)c(Br)c1 (centres unmarked) [Compound 179]
β-arr Max. Resp. (mu opioid receptor (MOR) [1]; [3]): F (F represents a maximal response of > 60%) | EC50 (mu opioid receptor (MOR) [1]; β-arrestin recruitment): 700 to 2100 nM | EC50 (mu opioid receptor (MOR) [2]; [6]): < 700 nM | cAMP Max. Resp. (mu opioid receptor (MOR) [2]; [5]): D (D represents a maximal response of < 40%)
